Measurements: patent US20160113900A1, “INHIBITORS OF MITOCHONDRIAL STAT3 AND USES THEREOF IN MODULATION OF MAST CELL EXOCYTOSIS” (Yissum Research Development Company of the Hebrew …, priority 2014, published 2016)

Columns and labels:
CBMC = assay: β-Hexosaminidase release assay (degranulation) in human cord blood-derived mast cells; assay type: cell-based; details: 60 μM Stattic 5 min before α-human-IgE, control cells 20.9±4.9
plasma histamine = assay: In vivo histamine release assay, passive systemic IgE-mediated anaphylaxis model
Procedure: C3H 6-7 week male and female WT mice were purchased from Jackson Lab (Cambridge, Mass., USA), mice were fed a regular diet and with drinking water ad libitum. Experiments were approved by The Hebrew University Ethical Committee for Animal Experimentation.
WT C3H mice were sensitized with 3 μg murine IgE anti-DNP mAb SPE-7 by means of intravenous injection in the tail vein. Twenty-four hours later, mice were treated with 40 mg/kg of static dissolved in corn oil or corn oil alone for 2.5 hours, then mice were challenged with i.v. injection of DNP-BSA (250 μg per mouse). 100 μl of blood was collected immediately and added to an equal volume of pre-cold Alsever's Solution. Blood was centrifuged 2000 g for […] and plasma supernatant was collected. Plasma histamine levels were determined by using competitive ELISA (IBL International Gmbh, Hamburg, Germany).
STAT3's role in vivo was investigated by evaluating the response to allergic stimulation in Stattic-treated mice. The passive systemic IgE-mediated anaphylaxis model was used. Mice were injected (i.v.) with IgE anti-DNP. Twenty four hours later they were injected (i.p.) with Stattic (80 mg/kg) or corn oil which was used as control. Three and a half hours later the mice were challenged with DNP-BSA for 1.5 minutes. Plasma was collected, and histamine levels were measured by competitive ELISA. Histamine secretion in Stattic-treated mice was 43% less than that in control mice (FIG. 17, p<0.05).
Mitocur-1/3 effectiveness in vivo was investigated by evaluating the response to allergic stimulation in Mitocur-1/3-treated mice. The passive systemic IgE-mediated anaphylaxis model was used. Mice were injected (i.v.) with IgE anti-DNP. Twenty four hours later they were injected (i.p.) with Mitocur-1 (80 mg/kg) and Mitocur-3 (40 mg/kg). Corn oil was used as control. Three and a half hours later the mice were challenged with DNP-BSA for 1.5 minutes. Plasma was collected, and histamine levels were measured by competitive ELISA. Histamine secretion in Mitocur-1-treated mice was 35% less than that in control mice (FIG. 22A, p<0.05).

RBL cells [1] = assay: Oxygen consumption (Seahorse XF analyzer) in RBL cells; assay type: cell-based, rat; details: RBL cells, 60 μM Stattic, 20 min
Procedure: (§1) RBL-2H3 cells were maintained in RPMI 1640 medium as previously described1. Bone marrow was isolated from 5-6 week-old mice, and BMMC were cultured in RPMI medium supplemented with 20 ng/ml interleukin-3 (IL-3) and 20 ng/ml SCF as previously described2, 3. Cells were generally grown for a minimum of 4 weeks and used when >90% of the population expressed FcεRI. BMMC and RBL cells were sensitized first with anti-DNP IgE monoclonal antibody (SPE-7; Sigma-Aldrich Corp.) and then challenged with DNP-BSA (Sigma-Aldrich Corp.). IgE antibody was centrifuged (18,000 g, 5 min) before use to remove aggregates. […] For glycolysis elimination cells were maintained in glucose-free RPMI supplemented with 10% dialyzed fetal calf serum and 5 mM galactose.
Oxygen consumption rate (OCR) was measured using an XF24 extracellular flux analyzer (Seahorse Biosciences, North Billeric, Mass., USA).

BMMC [2] = assay: Measurements of secreted mediators (ELISA) in activated BMMC; assay type: cell-based, mouse; details: immunologically activated BMMC, 60 μM Stattic 20 min
Procedure: 1×106 BMMC were immunologically activated as described above. After IgE incubation, the cells were washed three times in PBS and incubated with DNP-albumin (Sigma-Aldrich) for 30 mM in complete growth medium. Supernatant was collected and Granzyme B and TNFα content were measured using ELISA Kits (eBioscience).

[3] = system: succinate dehydrogenase (SDH, complex 2); assay: ETC complex activity analysis in treated RBL cells: complex 2; assay type: cell-based, rat; details: 60 μM Stattic, 30 min
Procedure: (§2) The enzymatic activities of respiratory chain complexes were measured at 37° C. by standard spectrophotometric methods as previously described5, 6. Briefly, complex II was measured as succinate dehydrogenase (SDH) based on the succinate-mediated phenazine methosulfate reduction of dichloroindophenol at 600 nm Complex 2+3 were measured as succinate cytochrome c reductase and after the reduction of oxidized cytochrome c at 550 nm. Complex 4 (cytochrome c oxidase) was measured by following the oxidation of reduced cytochrome c at 550 nm.
(§3) Citrate synthase (CS), an ubiquitous mitochondrial matrix enzyme, serving as a control, was measured in the presence of acetylCoA and oxaloacetate by monitoring the liberation of CoASH coupled to 5′,5′-dithiobis(2-nitrobenzoic) acid at 412 nm. Activities are presented as a ratio to CS. Protein concentration was determined by the Lowry method and calculated according to a bovine serum albumin (BSA) standard curve.

BMMC [4] = assay: ATP determination (ATPLite luminescence) in BMMC; assay type: cell-based, mouse; details: 60 μM Stattic, 20 min
Procedure: as §1
ATP levels were measured using the ATPLite luminescence-based assay according to the manufacturer's instructions (Perkin Elmer, Waltham, Mass., USA).

caspase3 = assay: Western blot of caspase3 / cleaved caspase3 (apoptosis) in RBL cells; assay type: cell-based, rat; details: activated RBL cells, 60 μM Stattic
Procedure: RBL cells and mitochondrial pellets were lysed by the addition of lysis buffer (50 mM Tris-HCl pH 7.4, 1% Nonidet P-40, 0.25% Na-deoxycholate, 150 mM NaCl, 1 mM EDTA, 1 mM PMSF) supplemented with 15 μl protease inhibitor (Sigma-Aldrich). Cells and mitochondria were vortexed and incubated on ice for 15 min. The lysates were then centrifuged at 14,000 g for 15 min and pellets were discarded. The protein concentration of each sample was determined using Bradford Reagent (Sigma-Aldrich). Proteins were resolved by 10-15% SDS-PAGE under reducing conditions and transferred to polyvinylidene difluoride membranes (Millipore Billerica, Ma). The membranes were incubated in 5% fat-free milk and TBST (10 mM Tris-HCl, pH 7.4, 150 mM NaCl, 0.1% Tween 20) for 1 h and then in 5% BSA and TBST containing various dilutions of primary Abs for 18 h at 4° C. The membranes were washed three times with TBST for 5 mM before and after each incubation with secondary Ab. The proteins were detected with the appropriate secondary Ab (1 h; room temperature) coupled to HRP-conjugated goat anti-rabbit or anti-mouse Ab and visualized by chemiluminescence according to the manufacturer's instructions (Pierce).

[5] = system: succinate cytochrome c reductase (complex 2+3); assay: ETC complex activity analysis in treated RBL cells: complex 2+3; assay type: cell-based, rat; details: 60 μM Stattic, 30 min, ratio to citrate synthase
Procedure: as §2, §3

RBL cells [6] = assay: TNF-α secretion of activated RBL cells; assay type: cell-based, rat; details: RBL cells, IgE/DNP-BSA, 60 μM Stattic 20 min
[7] = system: cytochrome c oxidase (COX, complex 4); assay: ETC complex activity analysis in treated RBL cells: complex 4; assay type: cell-based, rat; details: 60 μM Stattic, 30 min
Procedure: as §2, §3

With `O=[N+]([O-])c1ccc2c(c1)S(=O)(=O)C=C2` [Stattic, 6-Nitrobenzo[b]thiophene 1,1-dioxide, reference compound] the “degranulation (β-hexosaminidase release)” value (CBMC) was 3.5±1.9, the “histamine secretion less than in control mice” value (plasma histamine; Stattic 80 mg/kg i.p., 3.5 h before DNP-BSA challenge) was 43% and the “decrease in histamine secretion” value (plasma histamine; mice, Stattic 40 mg/kg, after two and a half hours (data not shown)) was 32.4%. For the same compound, the “reduction in oxygen consumption” value (RBL cells [1]) was 18.6±8.3%, the “Granzyme B secretion” value (BMMC [2]) was “greatly reduced” and the “change in succinate dehydrogenase (SDH, complex 2) activity” value [3] was “No significant change”. The “reduction in ATP levels” value (BMMC [4]) was 76.4±9.3%, the “caspase3 levels (apoptosis)” value (caspase3) was “no change” and the “reduction in complex 2+3 activity” value [5] was 50.8±6.1%. For the same compound, the TNF-α secretion (RBL cells [6]) was “completely abolished” and the “change in cytochrome c oxidase (COX, complex 4) activity” value [7] was “No significant change”.
